Source: patent US8592181B2, “Brazzein variant having higher sweetness and method for preparing multi-variant” (Chung-Ang University Industry-Academy Cooperation Foundation, priority 2009, dated 2013)
Where no end group is shown, it is not given here.

Key:
sweetness = conditions: cited from earlier work; for Sweetness relative to sugar (sucrose): related art
[1] = cited from earlier work; for Thermal stability: related art
human sense of taste = experiment: Sweetness measured by human sense of taste (20 trained subjects, minimum concentration at which sweetness is first sensed); assay type: in vivo; conditions: for Multiples of increased sweetness to minor-type brazzein / Minimum stimulation level in which one senses sweetness for first time: primary brazzein variants; for Multiples of increased sweetness to minor-type brazzein: relative to minor-type brazzein; for Minimum stimulation level in which one senses sweetness for first time: 20 trained subjects; for Sweetness ratios of sucrose (1 g/100 ml) to primary brazzein variants (minor-type brazzein: 2000): relative to 1 g/100 ml sucrose threshold
Method: Since the recombinant brazzein according to the present invention is not a sucrose-based compound having a cyclic ring, the sweetness of the recombinant brazzein was not measured using a saccharometer. Therefore, the activity of the recombinant brazzein was measured using the human sense of taste. Sugar content measurement was performed on 20 subjects who were trained to feel substantially the same minimum concentration of sucrose in which they could sense sweetness using a sucrose solution. That is, a concentration of each brazzein variant in which the subjects could sense sweetness for the first time was measured. Also, a sweetness ratio of the sucrose solution to the wild-type brazzein was 1 g/100 ml, which was a minimum stimulation level in which the subjects could sense sweetness. Also, a sweetness ratio of the minor-type brazzein protein to the wild-type brazzein was 500 μg/100 ml, which was a minimum stimulation level in which the subjects could sense sweetness. Therefore, the sweetness was calculated using the sweetness ratios (That is, 1/0.0005=2000 for the minor-type brazzein).
Also, the brazzein multi-variants were measured for activity (sweetness) in the same manner as in Example 3-1.

[2] = Thermal stability: heated at 80° C. for 4 hours in 50 mM Tris-HCl (pH 8.0), sweetness change level measured by the 20 subjects; assay type: physicochemical; conditions: primary variants
Method: On the basis of the results measured in Example 3-1, 100 mg of each of the brazzein variants having high sweetness, that is, brazzein(H30K) set forth in SEQ ID NO: 99, brazzein(H30R) set forth in SEQ ID NO: 100, brazzein(E35D) set forth in SEQ ID NO: 109, brazzein(E40A) set forth in SEQ ID NO: 113, brazzein(E40A) set forth in SEQ ID NO: 113, brazzein(E40D) set forth in SEQ ID NO: 114, brazzein(E40K) set forth in SEQ ID NO: 115, brazzein(E40H) set forth in SEQ ID NO: 116 and brazzein(E40R) set forth in SEQ ID NO: 117, was dissolved in a 50 mM Tris-HCl (pH 8.0) solution, and heated at 80° C. for 4 hours. Based on the sweetness measured before the heat treatment of the respective primary brazzein variants, a sweetness change level of each primary brazzein variant was then measured by the 20 subjects in the same manner as in Example 3-1.
Also, the brazzein multi-variants were measured for thermal stability in the same manner as in Example 3-2. […] From the high performance liquid chromatography analysis of the quaternary variants out of the brazzein multi-variants, it was confirmed that the quaternary variants maintained their constant thermal stability in spite of the fact that the quaternary variants had different structural properties than the minor-type brazzein protein.

Compound	Sweetness relative to sugar (sucrose) (sweetness)	Solubility and pH stability in water ([1]; Gao et al. 1999)	Thermal stability [1]	Multiples of increased sweetness to minor-type brazzein (human sense of taste)	Minimum stimulation level in which one senses sweetness for first time (human sense of taste)	Sweetness ratios of sucrose (1 g/100 ml) to primary brazzein variants (minor-type brazzein: 2000) (human sense of taste)	Thermal stability (relative activity after heat treatment) [2]	Sweetness relative to the major type of brazzein (sweetness; Assadi-Porter et al. 2000)
O=C1NS(=O)(=O)c2ccccc21 [saccharin]	approximately 500 times	–	–	–	–	–	–	–
C=C1C[C@@]23CC[C@H]4[C@@](C)(CCC[C@@]4(C)C(=O)O[C@@H]4O[C@H](CO)[C@@H](O)[C@H](O)[C@H]4O)[C@@H]2CC[C@]1(O[C@@H]1O[C@H](CO)[C@@H](O)[C@H](O)[C@H]1O[C@@H]1O[C@H](CO)[C@@H](O)[C@H](O)[C@H]1O)C3 [stevioside]	200 times	–	–	–	–	–	–	–
Brazzein: sweetener protein extracted from the fruit of Pentadiplandra brazzeana (Baillon) (QDKCKKVYENYPVSKCQLANQCNYDCKLDKHARSGECFYDEKRNLQCICDYCEY; UniProt P56552 1-54, looked up)	–	very high	very high	–	–	–	–	–
E35D: primary brazzein variant: Glu at position 35 of minor-type brazzein substituted with Asp (DKCKKVYENYPVSKCQLANQCNYDCKLRKHARSGDCFYDEKRNLQCICDYCEY; Brazzein(E35D)) [Brazzein E35D]	–	–	–	3.3	150 μg/100 ml	6,600	maintained their thermal stabilities	–
E40A: primary brazzein variant: Glu at position 40 of minor-type brazzein substituted with Ala (DKCKKVYENYPVSKCQLANQCNYDCKLRKHARSGECFYDAKRNLQCICDYCEY; Brazzein(E40A)) [Brazzein E40A]	–	–	–	3.3	150 μg/100 ml	6,600	maintained their thermal stabilities	–
E40D: primary brazzein variant: Glu at position 40 of minor-type brazzein substituted with Asp (DKCKKVYENYPVSKCQLANQCNYDCKLRKHARSGECFYDDKRNLQCICDYCEY; Brazzein(E40D)) [Brazzein E40D]	–	–	–	–	150 μg/100 ml	6,600	maintained their thermal stabilities	–
E40K: primary brazzein variant: Glu at position 40 of minor-type brazzein substituted with Lys (DKCKKVYENYPVSKCQLANQCNYDCKLRKHARSGECFYDKKRNLQCICDYCEY; Brazzein(E40K)) [Brazzein E40K]	–	–	–	3.3	150 μg/100 ml	6,600	maintained their thermal stabilities	–
E40R: primary brazzein variant: Glu at position 40 of minor-type brazzein substituted with Arg (DKCKKVYENYPVSKCQLANQCNYDCKLRKHARSGECFYDRKRNLQCICDYCEY; Brazzein(E40R)) [Brazzein E40R]	–	–	–	2	250 μg/100 ml	4,000	maintained their thermal stabilities	–
H30R: primary brazzein variant: His at position 30 of minor-type brazzein substituted with Arg (DKCKKVYENYPVSKCQLANQCNYDCKLRKRARSGECFYDEKRNLQCICDYCEY; Brazzein(H30R)) [Brazzein H30R]	–	–	–	3.3	150 μg/100 ml	6,600	maintained their thermal stabilities	–
Monellin	3,000 times	–	low	–	–	–	–	–
minor-type brazzein: wild-type minor type of brazzein, 53 amino acid residues without pyroglutamic acid at the amino-terminal region (DKCKKVYENYPVSKCQLANQCNYDCKLRKHARSGECFYDEKRNLQCICDYCEY; ends and bridges not checked; cysteine pairing not given here) [reference compound]	–	–	–	–	500 μg/100 ml	2000	–	approximately twice
